From patent US9493489B2, “Boron-containing small molecules as anti-protozoal agents” (Anacor Pharmaceuticals, Inc., priority 2008, dated 2016)

How the values were obtained:
[1] = test system: T. b. brucei or T. b. rhodesiense; test: Acute Murine Model B; type: in vivo, BALB/C mice; settings: after 55 days; 50 mg/kg BID IP for 5 days
Procedure: Female BALB/C mice were inoculated with 600 parasites of T. b. brucei or 10^4 parasites of T. b. rhodesiense. 24 hrs post-infection, treatment with 6-(4-chlorophenylsulfinyl)benzo[c][1,2]oxaborol-1(3H)-ol was initiated BID for 5 days at 50 mg/kg BID intraperitoneally (IP). Mice were monitored for 40-60 days for survival. After 10 days, 20% of the untreated mice were parasite free and at 20 days, 0% of the untreated mice were parasite free. After 55 days, 100% of mice treated with 6-(4-chlorophenylsulfinyl)benzo[c][1,2]oxaborol-1(3H)-ol were parasite free.

[2] = test system: cytochrome P450 enzyme (CP1A2, 2C9, 2D6, 3A4, CYP2C19); test: Cytochrome P450 inhibition; type: in vitro ADME; settings: CP1A2, 2C9, 2D6 and 3A4
[3] = test system: LAB 110 EATRO strain of T. b. brucei; test: Acute Murine Model A; type: in vivo, Swiss Webster mice; settings: for mice parasite free: ip, BID for 4 days; for T. brucei Minimum Effective Dose: bid × 4 days
Procedure: Female Swiss Webster mice were inoculated with 250,000 parasites of the LAB 110 EATRO strain of T. b. brucei. 24 hrs post-infection, treatment was initiated BID for 4 days with 20 mg/kg/dose (40 mg/kg/day) intraperitoneally (IP) or orally (PO), 5 mg/kg BID or 10 mg/kg BID orally (PO). N=3 mice/group. Mice were monitored for 30 days for survival. Pentamidine at 2 mg/kg IP was used as the positive control. After 10 days, 0% of the untreated mice were parasite free. After 10 days, 100% of mice treated with 20 mg/kg, ip, BID of 6-(4-chlorophenylsulfinyl)benzo[c][1,2]oxaborol-1(3H)-ol were parasite free. After 30 days, 100% of mice treated with 10 mg/kg, ip, BID of N-(1-hydroxy-1,3-dihydrobenzo[c][1,2]oxaborol-6-yl)-2-(trifluoromethyl)benzamide were parasite free.

[4] = In vitro metabolism, mouse/human liver microsomes; type: in vitro ADME; settings: read-out: in vitro metabolism T1/2 (Mouse/human liver microsomes)
[5] = test system: TREU 667 strain of T. b. brucei; test: Chronic CNS Model; type: in vivo, mice
Procedure: Mice were infected with 10,000 parasites of the TREU 667 strain of T. b. brucei. Twenty one days post-infection mice were treated with 50 mg/kg of the compound BID for 7 days intraperitoneally (IP). Positive control mice were treated with Berenil on Day 4 post-infection. Negative control mice were treated with Berenil on Day 21. Since Berenil is not able to penetrate the CNS, mice treated at Day 21 are not able to cure the infection. Starting 1 week after the end of treatment, mice are monitored for parasitemia and sacrificed if parasites are detected in the blood. Mice that survive 6 months are considered “cured.”

P-gp transporter = P-gp transporter (Homo sapiens, UniProt P08183); test: P-gp transporter substrate assessment; type: in vitro ADME
Chain of P-gp transporter (P08183 whole entry): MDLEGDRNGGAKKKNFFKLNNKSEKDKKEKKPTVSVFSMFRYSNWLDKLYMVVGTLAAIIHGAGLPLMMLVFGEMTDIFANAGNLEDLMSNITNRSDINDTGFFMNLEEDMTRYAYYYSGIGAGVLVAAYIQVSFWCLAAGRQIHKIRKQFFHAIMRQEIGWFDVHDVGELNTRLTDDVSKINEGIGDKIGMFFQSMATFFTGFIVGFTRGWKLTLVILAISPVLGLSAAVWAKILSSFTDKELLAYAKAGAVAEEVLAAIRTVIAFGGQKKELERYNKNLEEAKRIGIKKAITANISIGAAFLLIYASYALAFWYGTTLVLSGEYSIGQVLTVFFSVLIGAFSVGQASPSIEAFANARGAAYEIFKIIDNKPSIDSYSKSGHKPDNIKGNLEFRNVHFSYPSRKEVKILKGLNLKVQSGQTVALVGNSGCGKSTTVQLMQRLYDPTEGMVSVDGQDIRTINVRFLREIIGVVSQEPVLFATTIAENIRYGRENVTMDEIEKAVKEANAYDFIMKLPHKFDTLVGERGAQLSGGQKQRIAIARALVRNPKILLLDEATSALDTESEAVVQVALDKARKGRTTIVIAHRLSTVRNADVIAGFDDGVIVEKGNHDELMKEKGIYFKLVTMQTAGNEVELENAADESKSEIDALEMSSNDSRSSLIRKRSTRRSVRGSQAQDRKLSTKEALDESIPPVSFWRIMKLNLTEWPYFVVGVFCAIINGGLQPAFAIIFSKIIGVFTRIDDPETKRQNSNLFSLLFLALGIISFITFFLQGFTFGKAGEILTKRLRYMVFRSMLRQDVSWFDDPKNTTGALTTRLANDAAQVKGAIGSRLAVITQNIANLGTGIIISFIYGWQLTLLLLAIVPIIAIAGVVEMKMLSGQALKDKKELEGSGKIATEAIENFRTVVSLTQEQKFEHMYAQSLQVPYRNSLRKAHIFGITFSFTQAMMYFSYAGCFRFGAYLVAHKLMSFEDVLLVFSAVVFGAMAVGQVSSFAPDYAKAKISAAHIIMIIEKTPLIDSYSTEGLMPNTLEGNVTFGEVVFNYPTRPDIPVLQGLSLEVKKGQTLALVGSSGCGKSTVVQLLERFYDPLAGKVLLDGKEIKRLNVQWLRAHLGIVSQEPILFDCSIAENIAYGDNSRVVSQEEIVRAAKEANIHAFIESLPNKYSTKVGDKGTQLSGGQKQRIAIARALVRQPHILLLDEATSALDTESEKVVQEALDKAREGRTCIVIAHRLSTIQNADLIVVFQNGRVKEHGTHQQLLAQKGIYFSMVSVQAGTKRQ

[6] = In vitro metabolism, mouse S9; type: in vitro ADME; settings: S9 fraction, read-out: in vitro metabolism T1/2 (Mouse S9)
[7] = test system: L. infantum MHOM/MA(BE)/67; test: Leishmania infantum macrophage screening assay; type: cell-based; settings: 120 h, primary screen, reference drugs, primary peritoneal mouse macrophages, 5 days incubation
Procedure: Parasite and cell cultures. Two Leishmania species (L. infantum MHOM/MA(BE)/67 and L. donovani MHOM/ET/67/L82) were used. The strains were maintained in the Golden Hamster (Mesocricetus auratus). Amastigotes were collected from the spleen of an infected donor hamster using three centrifugation purification steps (300 rpm, keeping the supernatant, 2200 rpm, keeping the supernatants and 3500 rpm, keeping the pellet) and spleen parasite burdens were assessed using the Stauber technique (Stauber L A., Exp Parasitol. 18: 1-11 (1966)). Primary peritoneal mouse macrophages were used as host cell and were collected 2 days after peritoneal stimulation with a 2% potato starch suspension. […]
Assays were performed in 96-well microtiter plates, each well contained 10 μl of the compound dilutions together with 190 μl of macrophage/parasite inoculum (3×10^3 cells+4.5×10^5 parasites/well). […] After 5 days incubation, parasite burdens (mean number of amastigotes/macrophage) were microscopically assessed after staining the cells with a 10% Giemsa solution. The results were expressed as % reduction in parasite burden compared to untreated control wells and an IC50 (50% inhibitory concentration) was calculated. […]
Leishmania infantum MHOM/MA(BE)/67 and L. donovani MHOM/ET/67/L82 strains were used and the IC50-values were determined using an extended dose range (2-fold compound dilutions). […]

[O-][S+](c1ccc(Cl)cc1)c1ccc2c(c1)B(O)OC2 (stereo not shown) [6-(4-chlorophenylsulfinyl)benzo[c][1,2]oxaborol-1(3H)-ol]
mice parasite free [1]: 100% | inhibition of a cytochrome P450 enzyme [2]: does not inhibit | mice parasite free ([3]; after 10 days, 20 mg/kg): 100% | half-life [4]: > 5.83 h

N=C(N)c1ccc(/N=N/Nc2ccc(C(=N)N)cc2)cc1 [Diminazene, reference compound]
day by which all animals relapsed to exhibit blood parasitemia ([5]; treated on Day 21 post-infection): ≤ 53 days

O=C(Nc1ccc2c(c1)B(O)OC2)c1ccccc1C(F)(F)F [H1, N-(1-hydroxy-1,3-dihydrobenzo[c][1,2]oxaborol-6-yl)-2-(trifluoromethyl)benzamide]
T. brucei Minimum Effective Dose ([3]; route ip): 10 mg/kg, bid × 4 days

O=C(Nc1ccc2c(c1)B(O)OC2)c1ccccc1Cl [H7, 2-Chloro-N-(1-hydroxy-1,3-dihydro-benzo[c][1,2]oxaborol-6-yl)-benzamide]
mice parasite free for at least 100 days ([5]; additional results): 100% | T. brucei Minimum Effective Dose ([3]; route po): 10 mg/kg, bid × 4 days

O=C(Nc1ccc2c(c1)B(O)OC2)c1cc(F)ccc1C(F)(F)F [H17, 5-Fluoro-N-(1-hydroxy-1,3-dihydro-benzo[c][1,2]oxaborol-6-yl)-2-trifluoromethyl-benzamide]
mice parasite free for at least 60 days ([5]; additional results): 100% | T. brucei Minimum Effective Dose ([3]; route po): 5 mg/kg, bid × 4 days

O=C(Nc1ccc2c(c1)B(O)OC2)c1ccc(F)cc1C(F)(F)F [H19, 4-Fluoro-N-(1-hydroxy-1,3-dihydro-benzo[c][1,2]oxaborol-6-yl)-2-trifluoromethyl-benzamide]
mice parasite free for at least 100 days ([5]; additional results): 100% | T. brucei Minimum Effective Dose ([3]; route po): 5 mg/kg, bid × 4 days

O=C(Nc1ccc2c(c1)B(O)OC2)c1ccccc1C(F)(F)F [N-(1-hydroxy-1,3-dihydrobenzo[c][1,2]oxaborol-6-yl)-2-(trifluoromethyl)benzamide]
mice with absence of blood parasites through Day 91 ([5]; 50 mg/kg BID for 7 days IP, starting at Day 21 post-infection): 70% | inhibition of a cytochrome P450 enzyme [2]: does not inhibit | mice parasite free ([3]; after 30 days, 10 mg/kg): 100% | half-life [4]: 5.67 to 6 h | substrate for the P-gp transporter (P-gp transporter): not a substrate | half-life [6]: 3.33 to 3.75 h

CCCCCCCCCCCCCCCCOP(=O)([O-])OCC[N+](C)(C)C [miltefosin]
IC50 [7]: 4.3 µM
